Read-outs that look alike come from different tables or passages of the source.
What was measured:
Rat (SD) = experiment: Amphetamine-stimulated locomotion and rearing in rats; type: in vivo; conditions: for Minimum Effective Dose: PO, dose range 1-10 mg/kg
Procedure: (§1) Effects of exemplary low impact ampakines were also evaluated in mice for the ability to inhibit amphetamine-stimulated locomotor activity. Mice were placed in the locomotor chamber for 20 min to habituate, removed, injected with either vehicle or anti-ADHD ampakine (CX717), and 5 min later injected with 2 mg/kg i.p. Amphetamine. Mice were returned to the locomotor chamber 10 min later, and their activity measured for a further 15 min. In related studies, adult male CD1 mice or male Sprague-Dawley rats were acclimated in a test chamber for 20 minutes removed and dosed i.p. (mice) or orally (rats) with CX1739, vehicle, or a reference compound. Five (mice) or 10 (rats) were then injected with amphetamine (2 mg/kg, i.p.) or saline vehicle and were returned to the activity test chamber.

Rat (Wistar) = experiment: Novel object recognition memory; type: in vivo; conditions: for Minimum Effective Dose: IP
Procedure: Additional Novel Object Recognition behavioral model studies were conducted to further elucidate the anti-ADHD activities of CX717 and CX1739. Rats were habituated to a test box for two 5 minute sessions on consecutive days. Each test session consisted of two phases: in the first phase (“sample period”), two identical objects (A1 and A2) were placed in the far corners of the box, and the rats were allowed to explore the objects. After a 24 hour delay, rats were re-introduced to the arena (“test period”) now containing a third identical copy of the familiar object (A3) and a new object (B), placed in the same locations as in the first phase, and the total time spent exploring each of the objects was determined over a 3-min duration. For CX717 drug treatment, rats were dosed 30 min prior to each sample session with either 0.1, 0.3, 1.0 mg/kg CX717 (p.o.); vehicle (0.5% methylcellulose, p.o.) or 0.9 mg/kg Aricept (E2020, i.p.). The exploration times for the full 3-min were calculated and expressed as the discrimination index, d1, defined as the absolute difference in time spent exploring the novel object minus the familiar object.
For CX1739 Male Wistar rats were assessed for cognitive ability in a test apparatus comprising an open-field arena placed in a sound-attenuated room under dimmed lighting. Rat exploration and activity were captured by a digital camera, and viewed on a monitor in an adjoining area. Following a 5-minute habituation period, each animal was placed in the test arena in the presence of two identical objects (plastic shapes) and the time spent actively exploring the objects during a 5-minute test period (T1) was recorded. After 24 hours, each rat was again placed in the test arena for 5 minutes (T2) in the presence of one familiar object and one novel object, and the time spent exploring both objects was recorded. The Recognition Index was calculated as the percentage of total exploration time spent exploring the novel object during the retention session (T2), which provides the primary measure of cognitive function in this assay.
The Novel object recognition (NOR) paradigm is a rodent model of recognition learning memory retrieval and takes advantage of the spontaneous behavior of rodents to investigate a novel object compared with a familiar object. NOR has been employed extensively to indicate cognition-enhancing properties of drug candidates, predictive of therapeutic efficacy of positively-assaying drugs for reducing ADHD symptoms in humans.

[1] = tested on: hippocampal slices (CA1 population spikes)
Procedure: Slice Seizure Assay In these studies extracellular field potentials recording (Population Spikes) in hippocampal slices were used to determine convulsant activity (potential seizure liability). Transverse 300-400 μm hippocampal slices were taken from adult male Sprague-Dawley rats (4-6 week old) and incubated in a submerge slice recording chamber system for 30 to 60 min. The chamber was perfused with oxygenated artificial cerebral spinal fluid (ACSF) comprising (in mM): NaCl 124, KCl 3.0, KH2PO4 1.25, CaCl2.34, MgSO4 2.5, NaHCO3 26 and glucose 10 at room temperature. Population Spike (PS) recordings were made with glass electrodes filled with 2 M NaCl (1-5 megaohm) places in the region of pyramidal cell body of CA1. Electrical stimuli were produced with twisted bipolar nichrome wire electrodes in the Schaffer-commissural fiber afferents. Population spike was induced by activating Schaffer-commissural fiber using single pulse stimulation with delivered at 0.05 Hz. The maximal amplitude of PS was determined by increase stimulating intensity till second spike appears. Then the intensity was decreased to induce a 50% to 60% of maximal response. The amplitude of PS was measured for each response and plotted against time. At same time the amplitude of second PS and/or number of PS was measured and plotted against time. The size of the second PS and numbers of PS were used to estimate the seizure potential or seizure state. With 20 to 50 min stable baseline established testing compound was perfused for 10 to 20 min at each concentration to observe the effect. […] The perfusion then was switched to control ACSF and continued to record until drug effect was washed back to the baseline. CX717 and CX1739 exemplary test ampakine compounds were prepared by dissolving in DMSO and then added to ACSF.
The upper 3 panels of FIG. 5 show amplitudes for PS 1, 2 and 3 m respectively. Lower panel is the measurement of the number of PS.

[2] = tested on: aged Rhesus macaque monkeys; experiment: Delayed match-to-sample test; type: in vivo, Monkey (Rhesus); conditions: for Minimum Effective Dose: PO
Procedure: Further elucidating the potent behavioral and cognitive effects of exemplary ampakines useful within the invention, additional studies using the well known Monkey Delayed Match to Sample assay were conducted. CX1739 was evaluated using aged Rhesus macaque monkeys (18 to 33 years old), undertaking the delayed match-to-sample (DMTS) task. The stimuli included red, blue, or yellow rectangles. A trial was initiated by presentation of a sample rectangle composed of one of the three colors. The sample rectangle remained in view until the monkey touched within its borders to initiate a pre-programmed delay (retention) interval. Following the delay interval, two choice rectangles were presented, with one of the two choice colors being the color matching the stimulus and the other (incorrect) color as one of the two remaining colors. A correct (matching) choice was reinforced. Non-matching choices were neither reinforced nor punished. The duration for each delay interval was adjusted for each subject until […] of group performance accuracy approximated zero delay (85-100% of trials answered correctly), short delay interval (75-84% correct), medium delay interval (65-74% correct), and long delay interval (55-64% correct). The inter-trial interval was 5 seconds and each session consisted of 96 trials.

[3] = tested on: hippocampal LTP (hilus of the dentate gyrus); experiment: Effect on induction of LTP in rat hippocampus (anesthetized rat, in vivo); parameters: species or system Rat (Long Evans); conditions: for Minimum Effective Dose: IP
Mouse (CD1) = experiment: Amphetamine-stimulated locomotion in mice; type: in vivo; conditions: for Minimum Effective Dose: IP, dose range 5.6-30 mg/kg; for amphetamine-stimulated locomotion, pre-treatment: amphetamine 2 mg/kg i.p.
Procedure: as §1

## O=C(c1ccc2nonc2c1)N1CCOCC1 [CX717, 1-(benzofurazan-5-ylcarbonyl)morpholine]
Rat (SD); 3 mg/kg
  amphetamine-stimulated locomotion activity: significant decrease
Rat (SD); 1 and 3 mg/kg
  amphetamine-stimulated rearing: inhibits rearing
Rat (SD)
  Minimum Effective Dose: 1 mg/kg
Rat (Wistar); 0.3 mg/kg, compared to vehicle
  d1 scores (discrimination index): significant increase
Rat (Wistar)
  Minimum Effective Dose: 0.3 mg/kg
[1]; concentrations up to 600 uM
  seizure activity (population spikes): did not display seizure activity
[2]
  Minimum Effective Dose: 0.8 mg/kg
[3]; 2 mg/kg, after the tetanus, P<0.01
  enhancement of hippocampal LTP relative to baseline: 200%
[3]
  Minimum Effective Dose: 2 mg/kg
Mouse (CD1)
  Minimum Effective Dose: 18 mg/kg
  amphetamine-stimulated locomotion, pre-treatment: inhibited amphetamine-stimulated locomotion in mice in a dose-dependent manner

## CN(C(=O)c1ccc2nonc2c1)C1CCOCC1 [CX1739, N-Methyl-N-tetrahydro-2H-pyran-4-yl-[2,1,3]-benzoxadiazole-5-carboxamide]
Rat (SD)
  Minimum Effective Dose: 1 mg/kg
Rat (SD); rats, all doses tested
  amphetamine-stimulated rearing behavior: modest reduction
Rat (Wistar); 0.03 mg/kg
  preference for novel object exploration versus positive control: comparable to that of 3 mg/kg galantamine
Rat (Wistar)
  Minimum Effective Dose: 0.03 mg/kg
Rat (Wistar); rat, in vivo
  preference for exploring the novel object: significant increase
[1]; 100 μM for 20 min and then 200 μM for another 20 min
  seizure activity (population spikes): no sign of seizure activity
[1]; 100 μM then 200 μM perfusion
  amplitude of the first PS: did not change the amplitude of the first PS
[2]
  Minimum Effective Dose: 0.3 mg/kg
[2]; oral, 45 min prior to testing
  performance with medium or long delays: did not improve performance
[2]; oral, 45 min prior to testing, particularly the two higher doses, persisted at 24 hours
  mean accuracies during short delay trials relative to vehicle: increased
[2]; sessions 45 min after administration, P=0.027, restricted to long delay trials
  task accuracy at the Best Dose: statistically significant increase in task accuracy
[3]; 3 mg/kg, p<0.01
  effect on LTP: statistically significant increase in LTP
[3]
  Minimum Effective Dose: 3 mg/kg
Mouse (CD1); 30 mg/kg ip
  amphetamine-stimulated locomotion: significant decrease
Mouse (CD1)
  Minimum Effective Dose: 30 mg/kg
  amphetamine-stimulated locomotion, pre-treatment: inhibited amphetamine-stimulated locomotion in mice in a dose-dependent manner

Reference: patent US20210340130A1, “Compositions and methods for treating attention deficit disorders” (priority 2016, published 2021)
